Measurements taken from patent publication US8476298B2 (Exelixis, Inc., priority 2003, dated 2013).
Read-outs that look alike come from different tables or passages of the source.

Columns and labels:
[1] = target: T1, Flt-3 (baculovirus expressed human Flt-3 kinase domain R571-S993) (Homo sapiens, UniProt P36888); test: biochemical; details: read-out: flt3 IC50;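 also: Luciferase-coupled chemiluminescent kinase assay, activity read as percent ATP left after a 3 h reaction at room temperature, ATP near KM, 10-point dose-response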
T1 construct: human Flt-3 kinase domain R571-S993; host or cells: baculovirus expression
T1 sequence (P36888 571-993): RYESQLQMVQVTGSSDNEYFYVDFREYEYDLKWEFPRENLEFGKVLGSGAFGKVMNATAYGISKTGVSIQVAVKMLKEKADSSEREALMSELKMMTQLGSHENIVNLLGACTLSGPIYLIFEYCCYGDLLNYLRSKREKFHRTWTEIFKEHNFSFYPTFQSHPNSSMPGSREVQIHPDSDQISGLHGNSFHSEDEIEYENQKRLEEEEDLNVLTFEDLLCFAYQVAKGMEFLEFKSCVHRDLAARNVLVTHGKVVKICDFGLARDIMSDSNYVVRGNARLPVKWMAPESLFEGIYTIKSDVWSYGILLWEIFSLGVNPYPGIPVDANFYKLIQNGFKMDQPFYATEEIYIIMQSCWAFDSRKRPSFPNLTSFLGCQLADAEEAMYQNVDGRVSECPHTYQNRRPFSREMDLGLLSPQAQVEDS

[2] = target: T2, KDR (baculovirus expressed human KDR kinase domain D807-V1356) (Homo sapiens, UniProt P35968); test: biochemical;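 also: Luciferase-coupled chemiluminescent kinase assay, activity read as percent ATP left after 4 h reaction at ambient temperature, ATP near KM, 10-point dose-response in 384-well plates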
T2 construct: human KDR kinase domain D807-V1356; host or cells: baculovirus expression
T2 sequence (P35968 807-1356): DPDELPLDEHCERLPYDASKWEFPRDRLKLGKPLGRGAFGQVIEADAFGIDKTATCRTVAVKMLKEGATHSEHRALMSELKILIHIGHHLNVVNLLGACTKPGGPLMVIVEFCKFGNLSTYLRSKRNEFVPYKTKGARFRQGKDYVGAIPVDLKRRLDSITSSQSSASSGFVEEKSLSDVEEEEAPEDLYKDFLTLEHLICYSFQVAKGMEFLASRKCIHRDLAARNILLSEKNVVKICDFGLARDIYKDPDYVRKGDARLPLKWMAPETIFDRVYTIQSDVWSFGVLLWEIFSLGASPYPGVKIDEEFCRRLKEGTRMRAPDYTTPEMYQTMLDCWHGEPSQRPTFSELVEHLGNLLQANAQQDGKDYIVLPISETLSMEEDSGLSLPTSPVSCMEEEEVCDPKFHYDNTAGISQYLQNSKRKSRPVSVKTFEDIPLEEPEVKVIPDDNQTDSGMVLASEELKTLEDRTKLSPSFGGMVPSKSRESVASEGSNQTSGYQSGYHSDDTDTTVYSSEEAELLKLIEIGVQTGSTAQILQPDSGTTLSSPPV

[3] = target: T3, c-Met (baculovirus expressed human c-Met kinase domain P948-S1343) (Homo sapiens, UniProt P08581); test: c-Met Luciferase-Coupled Chemiluminescent Kinase assay (LCCA); format: biochemical;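 also: kinase activity read as percent ATP left after reaction, by luciferase-luciferin chemiluminescence, with 1 µM ATP and 1 µM poly-EY substrate, 2 h at ambient temperature, 10-point dose-response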
T3 construct: human c-Met kinase domain P948-S1343; host or cells: baculovirus expression
T3 sequence (P08581 1011-1343 limits assumed): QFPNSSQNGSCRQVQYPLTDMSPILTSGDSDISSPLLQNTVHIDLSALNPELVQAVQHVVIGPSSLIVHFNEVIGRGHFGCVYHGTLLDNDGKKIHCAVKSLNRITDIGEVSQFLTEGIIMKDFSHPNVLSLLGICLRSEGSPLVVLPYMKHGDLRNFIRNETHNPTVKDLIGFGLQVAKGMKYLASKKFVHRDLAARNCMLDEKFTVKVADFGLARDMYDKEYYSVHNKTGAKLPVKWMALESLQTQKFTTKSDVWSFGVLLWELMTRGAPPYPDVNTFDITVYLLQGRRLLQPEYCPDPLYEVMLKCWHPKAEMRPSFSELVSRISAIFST
Procedure: Kinase activity and compound inhibition are investigated using one or more of the three assay formats described below. The ATP concentrations for each assay are selected to be close to the Michaelis-Menten constant (KM) for each individual kinase. Dose-response experiments are performed at 10 different inhibitor concentrations in a 384-well plate format. […] Typically H is close to unity. c-Met Assay
c-Met biochemical activity was assessed using a Luciferase-Coupled Chemiluminescent Kinase assay (LCCA) format as described above. Again, kinase activity was measured as the percent ATP remaining following the kinase reaction. Remaining ATP was detected by luciferase-luciferin-coupled chemiluminescence. Specifically, the reaction was initiated by mixing test compounds, 1 μM ATP, 1 μM poly-EY and 10 nM c-Met (baculovirus expressed human c-Met kinase domain P948-S1343) in a 20 uL assay buffer (20 mM Tris-HCL pH7.5, 10 mM MgCl2, 0.02% Triton X-100, 100 mM DTT, 2 mM MnCu2). The mixture is incubated at ambient temperature for 2 hours after which 20 uL luciferase-luciferin mix is added and the chemiluminescent signal read using a Wallac Victor^2 reader.

[4] = Table 4, inhibition as IC50 class

| SMILES | IC50 [1, 4] [nM] | IC50 [2, 4] [nM] | IC50 [3, 4] [nM] | IC50 [2] [nM] | IC50 [3] [nM] | IC50 [1] [nM] |
| --- | --- | --- | --- | --- | --- | --- |
| COc1cc(CNC(=O)C(=O)Nc2ccc(Oc3ccnc4cc(OCC5CCNCC5)c(OC)cc34)c(F)c2)cc(OC)c1 [Example 269, N-{[3,5-bis(methyloxy)phenyl]methyl}-N′-[3-fluoro-4-({6-(methyloxy)-7-[(piperidin-4-ylmethyl)oxy]quinolin-4-yl}oxy)phenyl]ethanediamide] | < 50 | < 50 | < 50 | – | – | – |
| COc1cc2nc(SC)cc(Oc3ccc(NC(=O)C4(C(=O)Nc5ccc(F)cc5)CC4)cc3F)c2cc1OC [Example 338, N-(4-{[6,7-bis(methyloxy)-2-(methylthio)quinolin-4-yl]oxy}-3-fluorophenyl)-N′-(4-fluorophenyl)cyclopropane-1,1-dicarboxamide] | – | – | – | 500 to 5000 | 500 to 5000 | – |
| COc1cc2nc(C)nc(Oc3ccc(NC(=O)C4(C(=O)Nc5ccc(F)cc5)CC4)cc3)c2cc1OC [Example 339, N-(4-fluorophenyl)-N′-(4-{[2-methyl-6,7-bis(methyloxy)quinazolin-4-yl]oxy}phenyl)cyclopropane-1,1-dicarboxamide] | – | – | – | 500 to 5000 | 500 to 5000 | – |
| COc1cc2nc(N)cc(Oc3ccc(NC(=O)C4(C(=O)Nc5ccc(F)cc5)CC4)cc3F)c2cc1OC [Example 340, N-(4-{[2-amino-6,7-bis(methyloxy)quinolin-4-yl]oxy}-3-fluorophenyl)-N′-(4-fluorophenyl)cyclopropane-1,1-dicarboxamide] | – | – | – | 500 to 5000 | 500 to 5000 | – |
| CNc1cc(Oc2ccc(NC(=O)C3(C(=O)Nc4ccc(F)cc4)CC3)cc2F)c2cc(OC)c(OC)cc2n1 [Example 341, N-(3-fluoro-4-{[2-(methylamino)-6,7-bis(methyloxy)quinolin-4-yl]oxy}phenyl)-N′-(4-fluorophenyl)cyclopropane-1,1-dicarboxamide] | – | – | – | 500 to 5000 | 500 to 5000 | – |
| CCN(CC)CCCOc1cc2c(Oc3ccc(NC(=O)C4(C(=O)Nc5ccc(F)cc5)CC4)cc3F)ccnc2cc1OC [Example 344, N-(4-{[6-{[3-(diethylamino)propyl]oxy}-7-(methyloxy)quinolin-4-yl]oxy}-3-fluorophenyl)-N′-(4-fluorophenyl)cyclopropane-1,1-dicarboxamide] | – | – | – | < 50 | < 50 | < 50 |
| CCN(CC)CCOc1cc2c(Oc3ccc(NC(=O)C4(C(=O)Nc5ccc(F)cc5)CC4)cc3F)ccnc2cc1OC [Example 345, N-(4-{[6-{[2-(diethylamino)ethyl]oxy}-7-(methyloxy)quinolin-4-yl]oxy}-3-fluorophenyl)-N′-(4-fluorophenyl)cyclopropane-1,1-dicarboxamide] | – | – | – | < 50 | < 50 | < 50 |
| COc1cc2c(Oc3ccc(NC(=O)C4(C(=O)Nc5ccc(F)cc5)CC4)cc3F)ccnc2cc1OCCCN1CCN(C(=O)OC(C)(C)C)CC1 [Example 346, 1,1-dimethylethyl 4-(3-{[4-[(2-fluoro-4-{[(1-{[(4-fluorophenyl)amino]carbonyl}cyclopropyl)carbonyl]amino}phenyl)oxy]-6-(methyloxy)quinolin-7-yl]oxy}propyl)piperazine-1-carboxylate] | – | – | – | < 50 | < 50 | 50 to 500 |
| COc1cc2c(Oc3ccc(NC(=O)[C@]4(C(=O)Nc5ccc(F)cc5)C[C@H]4C)cc3F)ncnc2cc1OCCCN1CCOCC1 [Example 347, (1R,2R)-N-[3-fluoro-4-({6-(methyloxy)-7-[(3-morpholin-4-ylpropyl)oxy]quinazolin-4-yl}oxy)phenyl]-N′-(4-fluorophenyl)-2-methylcyclopropane-1,1-dicarboxamide] | – | – | – | < 50 | < 50 | – |
| CCN(CC)CCOc1cc2ncnc(Oc3ccc(NC(=O)[C@]4(C(=O)Nc5ccc(F)cc5)C[C@H]4C)cc3F)c2cc1OC [Example 348, (1R,2R)-N-(4-{[7-{[2-(diethylamino)ethyl]oxy}-6-(methyloxy)quinazolin-4-yl]oxy}-3-fluorophenyl)-N′-(4-fluorophenyl)-2-methylcyclopropane-1,1-dicarboxamide] | – | – | – | < 50 | < 50 | 50 to 500 |
| CCN(CC)CCCOc1cc2ncnc(Oc3ccc(NC(=O)C4(C(=O)Nc5ccc(F)cc5)CC4)cc3F)c2cc1OC [Example 349, N-(4-{[7-{[3-(diethylamino)propyl]oxy}-6-(methyloxy)quinazolin-4-yl]oxy}-3-fluorophenyl)-N′-(4-fluorophenyl)cyclopropane-1,1-dicarboxamide] | – | – | – | < 50 | < 50 | < 50 |
| COc1cc2c(Oc3ccc(NC(=O)C4(C(=O)Nc5ccc(F)cc5)CC4)cc3F)ccnc2cc1OCCCN1CCN(C(C)=O)CC1 [Example 350, N-(4-{[7-{[3-(4-acetylpiperazin-1-yl)propyl]oxy}-6-(methyloxy)quinolin-4-yl]oxy}-3-fluorophenyl)-N′-(4-fluorophenyl)cyclopropane-1,1-dicarboxamide] | – | – | – | < 50 | < 50 | < 50 |
| COc1cc2c(Oc3ccc(NC(=O)[C@]4(C(=O)Nc5ccc(F)cc5)C[C@H]4C)cc3F)ccnc2cc1OCCCN1CCN(C(=O)OC(C)(C)C)CC1 [Example 351, 1,1-dimethylethyl 4-(3-{[4-[(2-fluoro-4-{[((1R,2R)-1-{[(4-fluorophenyl)amino]carbonyl}-2-methylcyclopropyl)carbonyl]amino}phenyl)oxy]-6-(methyloxy)quinolin-7-yl]oxy}propyl)piperazine-1-carboxylate] | – | – | – | < 50 | < 50 | 50 to 500 |
| COc1cc2nccc(Oc3ccc(NC(=O)C4(C(=O)Nc5ccc(F)cc5)CN(Cc5ccccc5)C4)cc3)c2cc1OC [Example 352, N-(4-{[6,7-bis(methyloxy)quinolin-4-yl]oxy}phenyl)-N′-(4-fluorophenyl)-1-(phenylmethyl)azetidine-3,3-dicarboxamide] | – | – | – | 500 to 5000 | < 50 | 500 to 5000 |
| COc1cc2nccc(Oc3ccc(NC(=O)C4(C(=O)Nc5ccc(F)cc5)CNC4)cc3)c2cc1OC [Example 353, N-(4-{[6,7-bis(methyloxy)quinolin-4-yl]oxy}phenyl)-N′-(4-fluorophenyl)azetidine-3,3-dicarboxamide] | – | – | – | 500 to 5000 | 50 to 500 | 500 to 5000 |
| COc1cc2c(Oc3ccc(NC(=O)[C@]4(C(=O)Nc5ccc(F)cc5)C[C@@H]4C)cc3F)ccnc2cc1OCCCN1CCN(C)CC1 [Example 354, (1R,2S)-N-{3-fluoro-4-[(6-(methyloxy)-7-{[3-(4-methylpiperazin-1-yl)propyl]oxy}quinolin-4-yl)oxy]phenyl}-N′-(4-fluorophenyl)-2-methylcyclopropane-1,1-dicarboxamide] | – | – | – | < 50 | < 50 | < 50 |
| COc1cc2c(Oc3ccc(NC(=O)[C@]4(C(=O)Nc5ccc(F)cc5)C[C@H]4C)cc3F)ccnc2cc1OCCCN1CCN(C)CC1 [Example 355, (1R,2R)-N-{3-fluoro-4-[(6-(methyloxy)-7-{[3-(4-methylpiperazin-1-yl)propyl]oxy}quinolin-4-yl)oxy]phenyl}-N′-(4-fluorophenyl)-2-methylcyclopropane-1,1-dicarboxamide] | – | – | – | < 50 | < 50 | < 50 |
| COc1cc2c(Oc3ccc(NC(=O)[C@]4(C(=O)Nc5ccc(F)cc5)C[C@H]4C)cc3F)ccnc2cc1OCCCN1CCNCC1 [Example 356, (1R,2R)-N-[3-fluoro-4-({6-(methyloxy)-7-[(3-piperazin-1-ylpropyl)oxy]quinolin-4-yl}oxy)phenyl]-N′-(4-fluorophenyl)-2-methylcyclopropane-1,1-dicarboxamide] | – | – | – | < 50 | < 50 | < 50 |
| COc1cc2c(Oc3ccc(NC(=O)C4(C(=O)Nc5ccc(F)cc5)CC4)cc3F)ccnc2cc1OCCCN1CCN(C(C)C)CC1 [Example 357, N-(3-fluoro-4-{[7-({3-[4-(1-methylethyl)piperazin-1-yl]propyl}oxy)-6-(methyloxy)quinolin-4-yl]oxy}phenyl)-N′-(4-fluorophenyl)cyclopropane-1,1-dicarboxamide] | – | – | – | < 50 | < 50 | < 50 |
| CCN(CC)CCOc1cc2ncnc(Oc3ccc(NC(=O)C4(C(=O)Nc5ccc(F)cc5)CCC4)cc3F)c2cc1OC [Example 363, N-(4-{[7-{[2-(diethylamino)ethyl]oxy}-6-(methyloxy)quinazolin-4-yl]oxy}-3-fluorophenyl)-N′-(4-fluorophenyl)cyclobutane-1,1-dicarboxamide] | – | – | – | < 50 | < 50 | – |
| COc1cc2nccc(Oc3ccc(NC(=O)C4(C(=O)Nc5cccc(CN6CCCCC6)c5)CC4)cc3)c2cc1OC [Example 400, N-(4-{[6,7-bis(methyloxy)quinolin-4-yl]oxy}phenyl)-N′-[3-(piperidin-1-ylmethyl)phenyl]cyclopropane-1,1-dicarboxamide] | – | – | – | < 50 | 50 to 500 | – |
| COc1cc2nccc(Oc3ccc(NC(=O)C4(C(=O)Nc5cccc(CN6CCCC6)c5)CC4)cc3)c2cc1OC [Example 401, N-(4-{[6,7-bis(methyloxy)quinolin-4-yl]oxy}phenyl)-N′-[3-(pyrrolidin-1-ylmethyl)phenyl]cyclopropane-1,1-dicarboxamide] | – | – | – | < 50 | < 50 | – |
